In patent US20220243210A1, “ANGIOTENSIN II TYPE 1 RECEPTOR TARGETED OLIGONUCLEOTIDES AND USES THEREOF” (Ionis Pharmaceuticals, Inc., priority 2019, published 2022):
Values belong to the substance of their own block, whether it stands above or below them. Oligonucleotides are written 5' to 3', each unit as a sugar letter and its base; * is a phosphorothioate linkage, no mark a phosphodiester; rarer units and linkages stand in square brackets, end groups in braces. Plain capitals give the bases only. {Cy3} = Cy3 fluorescent dye label; k = constrained ethyl (cEt); [5mC] = 5-methylcytosine; d = 2'-deoxy (DNA)

Experiments:
human AGTR1 = molecular target: T1, human AGTR1 (Homo sapiens, UniProt P30556); assay: AGTR1 signaling, IP-One Gq kit (IP1 accumulation), HEK-AGTR1 FAP cells; format: cell-based; conditions: 90 minutes
T1 construct: host or cells: HEK293 (HEK-AGTR1 FAP cells)
T1 sequence (P30556 1-359): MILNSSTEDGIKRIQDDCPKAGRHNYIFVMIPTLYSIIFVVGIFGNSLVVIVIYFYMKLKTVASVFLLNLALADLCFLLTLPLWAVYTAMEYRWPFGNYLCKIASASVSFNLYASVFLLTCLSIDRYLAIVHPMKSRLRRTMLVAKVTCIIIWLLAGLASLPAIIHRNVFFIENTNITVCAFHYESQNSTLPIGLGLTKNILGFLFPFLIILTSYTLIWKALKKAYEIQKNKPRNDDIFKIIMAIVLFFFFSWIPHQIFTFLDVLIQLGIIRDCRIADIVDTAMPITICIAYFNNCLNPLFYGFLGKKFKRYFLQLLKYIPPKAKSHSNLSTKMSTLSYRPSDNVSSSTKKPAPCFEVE
Experimental: (§1) Activated AGTR1 couples to the Gαq subunit of heterotrimeric G proteins, which activates the phospholipase C (PLC) and subsequently inositol 1,4,5-trisphosphate (IP3) signaling cascade. AGTR1 signaling was measured using an IP-One Gq kit (cisbio #62IPAPEB). The kit detects the accumulation of inositol monophosphate (IP1), a stable downstream metabolite of IP3 induced by activation of a phospholipase C (PLC) cascade.
An additional control compound, AngII, which consists of the peptide motif […], was also tested. […] AGTR1 activation was measured using the IP-One Gq kit.

mouse MALAT RNA [1] = assay: MALAT RNA reduction in vivo, C57BL6/J mice, with or without Losartan pretreatment; conditions: no Losartan, sacrifice 4 days after dose
Experimental: Compound Nos. 1213287 and 1295887 are described in Table 1 above. Compound Nos. 1213287 and 1295887 were tested in C57BL6/J mice with or without pretreatment with the AGTR1 antagonist, Losartan. The mice were divided into groups of 3 mice each. Mice receiving Losartan were treated with 150 mg/L in the drinking water for 10 days. Each mouse received a single IV dose on day 10 of either Compound No. 1213287 or 1295887 of either 1.2 or 3.6 μmol/kg. The mice were then sacrificed on day 14. Heart, adipose, adrenal, kidney, and liver tissue was then collected and homogenized and RNA analysis was performed. A group of 4 mice received PBS as a negative control.
(§2) RNA was extracted from heart, adipose, adrenal, kidney, and liver tissue for real-time PCR analysis of measurement of RNA expression of MALAT using primer probe set mMALAT1 #2 (forward sequence […] (SEQ ID NO: 5); reverse sequence […] (SEQ ID NO: 6); probe sequence […] (SEQ ID NO: 7)). Results are presented as percent change of RNA, relative to PBS control, normalized to mouse GAPDH.

HEK-APLNR FAP cells = assay: IP1 accumulation negative control in HEK-APLNR FAP cells (do not express AGTR1); format: cell-based, human; conditions: 24 hours
Experimental: as §1
As a negative control, Compound Nos. 556089 and 1229761 were also tested in HEK293 cells expressing FAP tagged human Apelin receptor (HEK-APLNR FAP cells from Spectragenetics). […] HEK-APLNR FAP cells were cultured with Compound Nos. 556089 and 1229761, described herein above, at the concentrations detailed in Table 2 for 24 hours.

human MALAT1 RNA [2] = assay: MALAT1 RNA reduction in HEK-AGTR1 FAP cells, free uptake, 24 hours; format: cell-based; conditions: for MALAT (% control): relative to untreated control cells
Experimental: (§3) At the end of the treatment period, total RNA was isolated from the cells and MALAT1 RNA levels were measured by quantitative real-time PC&. […] MALAT1 RNA levels were normalized according to total RNA content, as measured by RIBOGREEN®. Reduction of MALAT1 RNA is presented Table 3 below as percent MALAT1 RNA amount relative to untreated control (UTC) cells. The half maximal inhibitory concentration (IC50) of each modified oligonucleotide was calculated using a non-linear fit [inhibitor] vs. response—variable slope (four parameters) formula in GraphPad Prism 7.01.

human MALAT1 RNA [3] = assay: MALAT1 RNA reduction in HEK-AGTR1 FAP cells, free uptake, 48 hours; format: cell-based; conditions: for MALAT (% control): relative to untreated control cells
Experimental: as §3, with “PCR.” for “PC&.”, “Reduction of MALAT1 RNA is presented Table 3 below as percent MALAT1 RNA amount relative to untreated control (UTC) cells.” left out, “response-variable” for “response—variable”, “(three” for “(four”

mouse MALAT RNA [4] = assay: MALAT RNA reduction in vivo, C57BL6/J mice, multiple dose; conditions: for ED50: IV day 0, 4, 8
Experimental: Compound Nos. 556089, 1229761, and 1229762 are described in Table 1 above. Compound Nos. 556089, 1229761, and 1229762 were tested in C57BL6/J mice. The mice were divided into groups of 4 mice each. […] The mice were then sacrificed on day 12. Heart, adipose, adrenal, kidney, and liver tissue was then collected and homogenized and RNA analysis was performed. A group of 4 mice received PBS as a negative control.
as §2

IP1 accumulation (human AGTR1; 0.0256 nM): 1.183 µM | IP1 accumulation (human AGTR1; 0.128 nM): 2.569 µM | IP1 accumulation (human AGTR1; 0.64 nM): 1.71 µM | IP1 accumulation (human AGTR1; 3.2 nM): 4.465 µM | IP1 accumulation (human AGTR1; 16 nM): 8.913 µM | IP1 accumulation (human AGTR1; 80 nM): 15.383 µM | IP1 accumulation (human AGTR1; 400 nM): 13.89 µM | IP1 accumulation (human AGTR1; 2000 nM): 14.825 µM
Substance: AngII

Substance: Compound No. 1213287: Control unconjugated 19-nucleotide modified oligonucleotide TCAGCATTCTAATAGCAGC with a 3′ Cy3 label (antisense dTd[5mC]dAkG*k[5mC]*kA*dT*dT*d[5mC]*dT*dA*dA*dT*dA*dG*d[5mC]*kA*kG*k[5mC]-{Cy3}) [reference compound]
MALAT RNA (% control) (mouse MALAT RNA [1]; Adipose, single IV 1.2 μmol/kg): 78.0 % control | MALAT RNA (% control) (mouse MALAT RNA [1]; Adipose, single IV 3.6 μmol/kg): 53.0 % control | MALAT RNA (% control) (mouse MALAT RNA [1]; Adrenal, single IV 1.2 μmol/kg): 78.7 % control | MALAT RNA (% control) (mouse MALAT RNA [1]; Adrenal, single IV 3.6 μmol/kg): 50.0 % control | MALAT RNA (% control) (mouse MALAT RNA [1]; Heart, single IV 1.2 μmol/kg): 77.0 % control | MALAT RNA (% control) (mouse MALAT RNA [1]; Heart, single IV 3.6 μmol/kg): 57.3 % control | MALAT RNA (% control) (mouse MALAT RNA [1]; Kidney, single IV 1.2 μmol/kg): 58.3 % control | MALAT RNA (% control) (mouse MALAT RNA [1]; Kidney, single IV 3.6 μmol/kg): 42.3 % control | MALAT RNA (% control) (mouse MALAT RNA [1]; Liver, single IV 1.2 μmol/kg): 53.7 % control | MALAT RNA (% control) (mouse MALAT RNA [1]; Liver, single IV 3.6 μmol/kg): 35.0 % control

Substance: Compound No. 1229761: Angiotensin II peptide [N6-(2-azidoacetyl)-K]DRVYIHPF conjugated via linker to 5′-end of MALAT1 modified oligonucleotide TCAGCATTCTAATAGCAGC
IP1 accumulation (HEK-APLNR FAP cells; 0.0256 nM): 590 nM | IP1 accumulation (HEK-APLNR FAP cells; 0.128 nM): 477 nM | IP1 accumulation (HEK-APLNR FAP cells; 0.64 nM): 564 nM | IP1 accumulation (HEK-APLNR FAP cells; 3.2 nM): 510 nM | IP1 accumulation (HEK-APLNR FAP cells; 16 nM): 505 nM | IP1 accumulation (HEK-APLNR FAP cells; 80 nM): 492 nM | IP1 accumulation (HEK-APLNR FAP cells; 400 nM): 425 nM | IP1 accumulation (HEK-APLNR FAP cells; 2000 nM): 472 nM | MALAT (% control) (human MALAT1 RNA [2]; 12 nM, 24 hours): 126 % control | MALAT (% control) (human MALAT1 RNA [2]; 111 nM, 24 hours): 76 % control | MALAT (% control) (human MALAT1 RNA [2]; 333 nM, 24 hours): 63 % control | MALAT (% control) (human MALAT1 RNA [2]; 1000 nM, 24 hours): 67 % control | MALAT (% control) (human MALAT1 RNA [2]; 3000 nM, 24 hours): 36 % control | MALAT (% control) (human MALAT1 RNA [2]; 9000 nM, 24 hours): 33 % control | IC50 (human MALAT1 RNA [2]; MALAT1 RNA, 24 hours, four parameter fit): 0.182 µM | reduction of target RNA in words (human MALAT1 RNA [2]; compared to parent unconjugated Compound No. 556089, 24 hours): significantly greater reduction of target RNA | MALAT (% control) (human MALAT1 RNA [3]; 2.7 nM, 48 hours): 94 % control | MALAT (% control) (human MALAT1 RNA [3]; 8.2 nM, 48 hours): 98 % control | MALAT (% control) (human MALAT1 RNA [3]; 24.7 nM, 48 hours): 92 % control | MALAT (% control) (human MALAT1 RNA [3]; 74.1 nM, 48 hours): 85 % control | MALAT (% control) (human MALAT1 RNA [3]; 222.2 nM, 48 hours): 53 % control | MALAT (% control) (human MALAT1 RNA [3]; 666.7 nM, 48 hours): 26 % control | MALAT (% control) (human MALAT1 RNA [3]; 2000 nM, 48 hours): 18 % control | MALAT (% control) (human MALAT1 RNA [3]; 6000 nM, 48 hours): 16 % control | MALAT (% control) (human MALAT1 RNA [3]; .10 nM, 48 hours): 85 % control | MALAT (% control) (human MALAT1 RNA [3]; .3 nM, 48 hours): 99 % control | MALAT (% control) (human MALAT1 RNA [3]; .9 nM, 48 hours): 91 % control | IC50 (human MALAT1 RNA [3]; MALAT1 RNA, 48 hours, three parameter fit): 0.29 µM | reduction of target RNA in words (human MALAT1 RNA [3]; compared to parent unconjugated Compound No. 556089, 48 hours): significantly greater reduction of target RNA | MALAT-1 RNA (% control) (mouse MALAT RNA [4]; Adipose, 0.4 μmol/kg IV day 0, 4, 8, sacrifice day 12, relative to PBS): 66.2 % control | MALAT-1 RNA (% control) (mouse MALAT RNA [4]; Adipose, 1.2 μmol/kg IV day 0, 4, 8, sacrifice day 12, relative to PBS): 33.0 % control | MALAT-1 RNA (% control) (mouse MALAT RNA [4]; Adipose, 3.6 μmol/kg IV day 0, 4, 8, sacrifice day 12, relative to PBS): 15.5 % control | ED50 (mouse MALAT RNA [4]; Adipose): 0.1 µmol/kg | MALAT-1 RNA (% control) (mouse MALAT RNA [4]; Adrenal, 0.4 μmol/kg IV day 0, 4, 8, sacrifice day 12, relative to PBS): 90.3 % control | MALAT-1 RNA (% control) (mouse MALAT RNA [4]; Adrenal, 1.2 μmol/kg IV day 0, 4, 8, sacrifice day 12, relative to PBS): 59.7 % control | MALAT-1 RNA (% control) (mouse MALAT RNA [4]; Adrenal, 3.6 μmol/kg IV day 0, 4, 8, sacrifice day 12, relative to PBS): 41.5 % control | ED50 (mouse MALAT RNA [4]; Adrenal): 1.091 µmol/kg | MALAT-1 RNA (% control) (mouse MALAT RNA [4]; Heart, 0.4 μmol/kg IV day 0, 4, 8, sacrifice day 12, relative to PBS): 82.3 % control | MALAT-1 RNA (% control) (mouse MALAT RNA [4]; Heart, 1.2 μmol/kg IV day 0, 4, 8, sacrifice day 12, relative to PBS): 68.7 % control | MALAT-1 RNA (% control) (mouse MALAT RNA [4]; Heart, 3.6 μmol/kg IV day 0, 4, 8, sacrifice day 12, relative to PBS): 31.7 % control | ED50 (mouse MALAT RNA [4]; Heart): 2.686 µmol/kg | MALAT-1 RNA (% control) (mouse MALAT RNA [4]; Kidney, 0.4 μmol/kg IV day 0, 4, 8, sacrifice day 12, relative to PBS): 53.8 % control | MALAT-1 RNA (% control) (mouse MALAT RNA [4]; Kidney, 1.2 μmol/kg IV day 0, 4, 8, sacrifice day 12, relative to PBS): 39.6 % control | MALAT-1 RNA (% control) (mouse MALAT RNA [4]; Kidney, 3.6 μmol/kg IV day 0, 4, 8, sacrifice day 12, relative to PBS): 21.4 % control | ED50 (mouse MALAT RNA [4]; Kidney): 1.88 µmol/kg | MALAT-1 RNA (% control) (mouse MALAT RNA [4]; Liver, 0.4 μmol/kg IV day 0, 4, 8, sacrifice day 12, relative to PBS): 34.7 % control | MALAT-1 RNA (% control) (mouse MALAT RNA [4]; Liver, 1.2 μmol/kg IV day 0, 4, 8, sacrifice day 12, relative to PBS): 12 % control | MALAT-1 RNA (% control) (mouse MALAT RNA [4]; Liver, 3.6 μmol/kg IV day 0, 4, 8, sacrifice day 12, relative to PBS): 5.7 % control | ED50 (mouse MALAT RNA [4]; Liver): 0.063 µmol/kg
